Assay results as given in ChEMBL document CHEMBL3045247, “GUANIDINES: FROM MOLECULE TO PRIMATE” (2004).

Legend:
Design in all cases: scale not given: the % may be the effect or the level left
Papio ursinus [1] = assay: Cardioprotective activity in Papio ursinus (baboon) ischaemic reperfusion injury model assessed as reduction of systolic blood pressure at 1 mg/kg, iv after 4 min; type: functional, Artery
Papio ursinus [2] = assay: Cardioprotective activity in Papio ursinus (baboon) ischaemic reperfusion injury model assessed as reduction of diastolic blood pressure at 2 mg/kg, iv after 10 min; type: functional, Artery
Papio ursinus [3] = assay: Cardioprotective activity in Papio ursinus (baboon) ischaemic reperfusion injury model assessed as reduction of diastolic blood pressure at 1 mg/kg, iv after 25 min; type: functional, Artery
Papio ursinus [4] = assay: Cardioprotective activity in Papio ursinus (baboon) ischaemic reperfusion injury model assessed as reduction of systolic blood pressure at 2 mg/kg, iv after 25 min; type: functional, Artery
Papio ursinus [5] = assay: Cardioprotective activity in Papio ursinus (baboon) ischaemic reperfusion injury model assessed as reduction of systolic blood pressure at 1 mg/kg, iv after 2 min; type: functional, Artery
Papio ursinus [6] = assay: Cardioprotective activity in Papio ursinus (baboon) ischaemic reperfusion injury model assessed as reduction of systolic blood pressure at 1 mg/kg, iv after 15 min; type: functional, Artery
Papio ursinus [7] = assay: Cardioprotective activity in Papio ursinus (baboon) ischaemic reperfusion injury model assessed as reduction of heart rate at 1 mg/kg, iv after 15 min relative to control; type: functional
Papio ursinus [8] = assay: Cardioprotective activity in Papio ursinus (baboon) ischaemic reperfusion injury model assessed as reduction of heart rate at 1 mg/kg, iv after 10 min relative to control; type: functional
Papio ursinus [9] = assay: Cardioprotective activity in Papio ursinus (baboon) ischaemic reperfusion injury model assessed as reduction of heart rate at 2 mg/kg, iv after 20 min relative to control; type: functional
Papio ursinus [10] = assay: Cardioprotective activity in Papio ursinus (baboon) ischaemic reperfusion injury model assessed as reduction of heart rate at 1 mg/kg, iv after 4 min relative to control; type: functional
Papio ursinus [11] = assay: Cardioprotective activity in Papio ursinus (baboon) ischaemic reperfusion injury model assessed as reduction of heart rate at 1 mg/kg, iv after 6 min relative to control; type: functional
Papio ursinus [12] = assay: Cardioprotective activity in Papio ursinus (baboon) ischaemic reperfusion injury model assessed as reduction of diastolic blood pressure at 2 mg/kg, iv after 2 min; type: functional, Artery
Papio ursinus [13] = assay: Cardioprotective activity in Papio ursinus (baboon) ischaemic reperfusion injury model assessed as reduction of diastolic blood pressure at 2 mg/kg, iv after 25 min; type: functional, Artery
Papio ursinus [14] = assay: Cardioprotective activity in Papio ursinus (baboon) ischaemic reperfusion injury model assessed as reduction of systolic blood pressure at 1 mg/kg, iv after 6 min; type: functional, Artery
Papio ursinus [15] = assay: Cardioprotective activity in Papio ursinus (baboon) ischaemic reperfusion injury model assessed as reduction of diastolic blood pressure at 1 mg/kg, iv after 4 min; type: functional, Artery
Papio ursinus [16] = assay: Cardioprotective activity in Papio ursinus (baboon) ischaemic reperfusion injury model assessed as reduction of systolic blood pressure at 2 mg/kg, iv after 6 min; type: functional, Artery
Papio ursinus [17] = assay: Cardioprotective activity in Papio ursinus (baboon) ischaemic reperfusion injury model assessed as reduction of heart rate at 2 mg/kg, iv after 4 min relative to control; type: functional
Papio ursinus [18] = assay: Cardioprotective activity in Papio ursinus (baboon) ischaemic reperfusion injury model assessed as reduction of diastolic blood pressure at 2 mg/kg, iv after 20 min; type: functional, Artery
Papio ursinus [19] = assay: Cardioprotective activity in Papio ursinus (baboon) ischaemic reperfusion injury model assessed as reduction of systolic blood pressure at 2 mg/kg, iv after 15 min; type: functional, Artery
Papio ursinus [20] = assay: Cardioprotective activity in Papio ursinus (baboon) ischaemic reperfusion injury model assessed as reduction of systolic blood pressure at 1 mg/kg, iv after 25 min; type: functional, Artery
Papio ursinus [21] = assay: Cardioprotective activity in Papio ursinus (baboon) ischaemic reperfusion injury model assessed as reduction of diastolic blood pressure at 1 mg/kg, iv after 20 min; type: functional, Artery
Papio ursinus [22] = assay: Cardioprotective activity in Papio ursinus (baboon) ischaemic reperfusion injury model assessed as reduction of diastolic blood pressure at 2 mg/kg, iv after 4 min; type: functional, Artery
Papio ursinus [23] = assay: Cardioprotective activity in Papio ursinus (baboon) ischaemic reperfusion injury model assessed as reduction of diastolic blood pressure at 1 mg/kg, iv after 6 min; type: functional, Artery
Papio ursinus [24] = assay: Cardioprotective activity in Papio ursinus (baboon) ischaemic reperfusion injury model assessed as reduction of heart rate at 2 mg/kg, iv after 2 min relative to control; type: functional
Papio ursinus [25] = assay: Cardioprotective activity in Papio ursinus (baboon) ischaemic reperfusion injury model assessed as reduction of diastolic blood pressure at 1 mg/kg, iv after 2 min; type: functional, Artery
Papio ursinus [26] = assay: Cardioprotective activity in Papio ursinus (baboon) ischaemic reperfusion injury model assessed as reduction of heart rate at 1 mg/kg, iv after 2 min relative to control; type: functional
Papio ursinus [27] = assay: Cardioprotective activity in Papio ursinus (baboon) ischaemic reperfusion injury model assessed as reduction of heart rate at 2 mg/kg, iv after 6 min relative to control; type: functional
Papio ursinus [28] = assay: Cardioprotective activity in Papio ursinus (baboon) ischaemic reperfusion injury model assessed as reduction of diastolic blood pressure at 2 mg/kg, iv after 15 min; type: functional, Artery
Papio ursinus [29] = assay: Cardioprotective activity in Papio ursinus (baboon) ischaemic reperfusion injury model assessed as reduction of heart rate at 1 mg/kg, iv after 25 min relative to control; type: functional
Papio ursinus [30] = assay: Cardioprotective activity in Papio ursinus (baboon) ischaemic reperfusion injury model assessed as reduction of heart rate at 2 mg/kg, iv after 15 min relative to control; type: functional
Papio ursinus [31] = assay: Cardioprotective activity in Papio ursinus (baboon) ischaemic reperfusion injury model assessed as reduction of heart rate at 2 mg/kg, iv after 10 min relative to control; type: functional
Papio ursinus [32] = assay: Cardioprotective activity in Papio ursinus (baboon) ischaemic reperfusion injury model assessed as reduction of systolic blood pressure at 2 mg/kg, iv after 4 min; type: functional, Artery
Papio ursinus [33] = assay: Cardioprotective activity in Papio ursinus (baboon) ischaemic reperfusion injury model assessed as reduction of systolic blood pressure at 2 mg/kg, iv after 20 min; type: functional, Artery
Papio ursinus [34] = assay: Cardioprotective activity in Papio ursinus (baboon) ischaemic reperfusion injury model assessed as reduction of heart rate at 1 mg/kg, iv after 20 min relative to control; type: functional
Papio ursinus [35] = assay: Cardioprotective activity in Papio ursinus (baboon) ischaemic reperfusion injury model assessed as reduction of diastolic blood pressure at 2 mg/kg, iv after 6 min; type: functional, Artery
Papio ursinus [36] = assay: Cardioprotective activity in Papio ursinus (baboon) ischaemic reperfusion injury model assessed as reduction of systolic blood pressure at 2 mg/kg, iv after 10 min; type: functional, Artery
Papio ursinus [37] = assay: Cardioprotective activity in Papio ursinus (baboon) ischaemic reperfusion injury model assessed as reduction of diastolic blood pressure at 1 mg/kg, iv after 10 min; type: functional, Artery
Papio ursinus [38] = assay: Cardioprotective activity in Papio ursinus (baboon) ischaemic reperfusion injury model assessed as reduction of systolic blood pressure at 2 mg/kg, iv after 2 min; type: functional, Artery
Papio ursinus [39] = assay: Cardioprotective activity in Papio ursinus (baboon) ischaemic reperfusion injury model assessed as reduction of diastolic blood pressure at 1 mg/kg, iv after 15 min; type: functional, Artery
Papio ursinus [40] = assay: Cardioprotective activity in Papio ursinus (baboon) ischaemic reperfusion injury model assessed as reduction of heart rate at 2 mg/kg, iv after 25 min relative to control; type: functional
Papio ursinus [41] = assay: Cardioprotective activity in Papio ursinus (baboon) ischaemic reperfusion injury model assessed as reduction of systolic blood pressure at 1 mg/kg, iv after 20 min; type: functional, Artery
Papio ursinus [42] = assay: Cardioprotective activity in Papio ursinus (baboon) ischaemic reperfusion injury model assessed as reduction of systolic blood pressure at 1 mg/kg, iv after 10 min; type: functional, Artery

COc1ccc(/C=N/NC(=N)N)c(Cl)c1OC
Activity (Papio ursinus [1]): 0.3%
Activity (Papio ursinus [2]): 1.02%
Activity (Papio ursinus [3]): 20.31%
Activity (Papio ursinus [4]): 9.54%
Activity (Papio ursinus [5]): 0.02%
Activity (Papio ursinus [6]): 9.36%
Activity (Papio ursinus [7]): 15.47%
Activity (Papio ursinus [8]): 15.96%
Activity (Papio ursinus [9]): 19.52%
Activity (Papio ursinus [10]): 10.77%
Activity (Papio ursinus [11]): 14.6%
Activity (Papio ursinus [12]): 10.1%
Activity (Papio ursinus [13]): 2.78%
Activity (Papio ursinus [14]): 0.26%
Activity (Papio ursinus [15]): 2.67%
Activity (Papio ursinus [16]): 5.72%
Activity (Papio ursinus [17]): 17.1%
Activity (Papio ursinus [18]): 4.9%
Activity (Papio ursinus [19]): 6.84%
Activity (Papio ursinus [20]): 16.22%
Activity (Papio ursinus [21]): 31.36%
Activity (Papio ursinus [22]): 4.24%
Activity (Papio ursinus [23]): 3.8%
Activity (Papio ursinus [24]): 12.95%
Activity (Papio ursinus [25]): 0.02%
Activity (Papio ursinus [26]): 5.33%
Activity (Papio ursinus [27]): 18.96%
Activity (Papio ursinus [28]): 2.2%
Activity (Papio ursinus [29]): 18.28%
Activity (Papio ursinus [30]): 19.68%
Activity (Papio ursinus [31]): 18.88%
Activity (Papio ursinus [32]): 3.1%
Activity (Papio ursinus [33]): 8.48%
Activity (Papio ursinus [34]): 15.6%
Activity (Papio ursinus [35]): 1.78%
Activity (Papio ursinus [36]): 7.45%
Activity (Papio ursinus [37]): 7.58%
Activity (Papio ursinus [38]): 5.24%
Activity (Papio ursinus [39]): 15.16%
Activity (Papio ursinus [40]): 27.74%
Activity (Papio ursinus [41]): 10.56%
Activity (Papio ursinus [42]): 3.62%
